Activity calls are given as the source filed them. The rule behind the calls is not given here.

For data set [1], the system named is HepG2. The experiment in a line: Cytotoxicity against human HepG2 cells assessed as inhibition of cell growth at 10 uM measured after 24 hrs by MTT assay (reference value: 0.21%). Format: functional. In general terms: Tetrazolium assays rely on reduction of a dye to a coloured formazan, in cell work by metabolically active cells.
A short description of data set [2]: Cytotoxicity against human HEK cells assessed as inhibition of cell growth at 10 uM measured after 24 hrs by MTT assay (reference value: 0.11%). The class given is cell-based.
For data set [3], the system named is HCT-116. The experiment in a line: Cytotoxicity against human HCT-116 cells assessed as inhibition of cell growth at 10 uM measured after 24 hrs by MTT assay (reference value: 0.17%). The class given is functional.
For data set [4], the system named is PA-1. Put plainly: Cytotoxicity against human PA-1 cells assessed as inhibition of cell growth at 10 uM measured after 24 hrs by MTT assay (reference value: 0.19%). The class given is functional.
In data set [5] the target is T1, RAC-alpha serine/threonine-protein kinase (Homo sapiens, UniProt P31749).
Description: Inhibition of Akt-1 (unknown origin)
For data set [6], the system named is PANC-1. Put plainly: Cytotoxicity against human PANC-1 cells assessed as decrease in cell viability at 50 uM measured after 18 hrs by MTT assay. The class given is functional, cell-based.
Data set [7] in a line: Toxicity in 7 days post fertilize zebrafish embryo assessed as morphological abnormalities at 1 to 100 uM after 24 hrs. To be noted: in vivo, dose 1-100 µM. Also on record: species or system Danio rerio.
Data set [8] relates to PANC-1. The experiment in a line: Inhibition of human Akt in human PANC-1 cells assessed as inhibition of Akt phosphorylation at 50 uM measured after 18 hrs by Western blot assay. The class given is cell-based.
A short description of data set [9]: Toxicity in zebra fish embryo measured 5 days post fertilization by measuring teratogenicity at 1 to 100 uM. Details: species or system Danio rerio. To be noted: zebrafish, 120 h, dose 1-100 µM, time 5 day.
Data set [10] relates to PANC-1. Put plainly: Inhibition of human Akt in human PANC-1 cells assessed as cell growth arrest at 50 uM measured after 18 hrs by Western blot assay. The class given is cell-based. Background: Immunoblotting shows a protein as a band on a membrane.
For data set [11], the target named is RAC-beta serine/threonine-protein kinase (Homo sapiens) (UniProt P31751). The experiment in a line: Binding affinity to Akt2 (unknown origin).
The nature of data set [12]: Toxicity in 7 days post fertilize zebrafish embryo assessed as death at 1 to 100 uM after 24 hrs. Details: species or system Danio rerio. To be noted: in vivo, dose 1-100 µM.
The nature of data set [13]: Toxicity in 7 days post fertilize zebrafish embryo assessed as morphological abnormalities or atrioventricular blocks measured after 24 hrs by bright field microscopic analysis. Also on record: species or system Danio rerio. The conditions noted are these: in vivo, dose 1-100 µM.
Data set [14] is described as follows: Inhibition of Protein kinase A (unknown origin). Details: species or system Homo sapiens.
Data set [15] is described as follows: Hepatotoxicity in 4 days post fertilize zebra fish embryo measured 7 days post fertilization at 1 to 100 uM. Format: toxicity, Danio rerio. The conditions noted are these: zebrafish, dose 1-100 µM.
Data set [16] addresses T1, RAC-alpha serine/threonine-protein kinase. The experiment in a line: Binding affinity to Akt1 (unknown origin).
Data set [17] deals with HCT-116. Put plainly: Cytotoxicity against human HCT-116 cells assessed as inhibition of cell growth measured after 24 hrs by MTT assay. To be noted: HCT-116, 24 h. Format: functional, cell-based.
Data set [18] relates to PA-1. Put plainly: Cytotoxicity against human PA-1 cells assessed as inhibition of cell growth measured after 24 hrs by MTT assay. The class given is functional, cell-based. The conditions noted are these: PA-1, 24 h.
Data set [19] in a line: Microsomal stability in rat liver microsomes assessed as intrinsic clearance. To be noted: read-out: CLH. Format: ADME, Microsome. For orientation: Microsomes from liver hold many membrane-bound enzymes, among them those of drug oxidation.
Data set [20] is described as follows: Stability of compound assessed as parent compound remaining after 60 mins in rat liver microsomes. Format: ADME, Microsome. To be noted: read-out: Stabilty.
The nature of data set [21]: Microsomal stability in rat liver microsomes assessed as half life. Format: ADME, Microsome.

T1 sequence (P31749 whole entry): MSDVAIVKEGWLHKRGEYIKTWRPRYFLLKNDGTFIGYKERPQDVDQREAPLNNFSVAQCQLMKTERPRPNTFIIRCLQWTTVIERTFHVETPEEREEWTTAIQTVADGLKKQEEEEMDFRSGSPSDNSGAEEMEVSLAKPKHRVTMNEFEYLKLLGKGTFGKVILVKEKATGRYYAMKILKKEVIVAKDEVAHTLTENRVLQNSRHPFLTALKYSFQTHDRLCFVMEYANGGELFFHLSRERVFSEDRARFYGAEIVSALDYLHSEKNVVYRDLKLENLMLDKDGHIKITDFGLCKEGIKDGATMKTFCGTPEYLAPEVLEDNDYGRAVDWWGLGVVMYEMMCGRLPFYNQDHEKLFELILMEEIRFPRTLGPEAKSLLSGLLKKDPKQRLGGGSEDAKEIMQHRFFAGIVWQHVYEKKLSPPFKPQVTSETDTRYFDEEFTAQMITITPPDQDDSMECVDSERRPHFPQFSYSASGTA
RAC-beta serine/threonine-protein kinase (Homo sapiens), sequence (P31751 whole entry): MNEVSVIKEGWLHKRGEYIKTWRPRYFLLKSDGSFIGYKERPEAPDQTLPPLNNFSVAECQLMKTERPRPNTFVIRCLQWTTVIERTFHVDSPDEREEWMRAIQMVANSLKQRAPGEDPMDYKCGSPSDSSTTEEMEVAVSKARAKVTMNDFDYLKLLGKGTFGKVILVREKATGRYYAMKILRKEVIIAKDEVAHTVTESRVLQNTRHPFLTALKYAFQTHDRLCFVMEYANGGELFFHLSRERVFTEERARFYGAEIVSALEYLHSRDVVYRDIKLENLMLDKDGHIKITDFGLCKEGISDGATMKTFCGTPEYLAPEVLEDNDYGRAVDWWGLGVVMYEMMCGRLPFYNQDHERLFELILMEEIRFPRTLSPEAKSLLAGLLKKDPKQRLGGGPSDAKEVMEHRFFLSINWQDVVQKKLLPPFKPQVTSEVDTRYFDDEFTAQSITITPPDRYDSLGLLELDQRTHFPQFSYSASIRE

Usually inhibition stands for the change of the read-out against control, counted positive when it falls. Take `CC(C)c1nc(N(C)S(C)(=O)=O)nc(-c2ccc(F)cc2)c1COCc1cc2ccc(Cl)cc2c(=O)o1`: the inhibition at 10 µM in data set [1] is 20.6%; in data set [3], 23.4%; in [4], 20.9%. Further, the inhibition at 24 h, 10 µM in data set [2] is 2.3%.
Take `CC(C)c1nc(N(C)S(C)(=O)=O)nc(-c2ccc(F)cc2)c1COCc1cc2ccc(F)cc2c(=O)o1`: the inhibition at 10 µM was determined as 33.2% in data set [1], 36.9% in [3] and 28.9% in [4]. In data set [2], the inhibition at 24 h, 10 µM was determined as 3.1%.
The matching figures for `CC(C)c1nc(N(C)S(C)(=O)=O)nc(-c2ccc(F)cc2)c1COCc1cc2cc(Cl)ccc2c(=O)o1`: 10.9%, 19.8%, 16.8% and 1.3%.
The term IC50 denotes the concentration that gives 50% inhibition. `COc1cc2c(cc1OC)/C(=C/COCc1c(-c3ccc(F)cc3)nc(N(C)S(C)(=O)=O)nc1C(C)C)OC2=O`: the results for the inhibition at 10 µM in [1], in data set [3] and in [4] were 50.1%, 53.7% and 69.8%, respectively. Further, the IC50 in data set [5] is 3.7 µM; in data set [14], more than 10 µM. In addition, the inhibition entry in [6], in data set [8] and in data set [10] was “Active” each time. Also, the Activity result was “Non-Toxic” in data set [7]; “Non-Toxic” in [9]; -9.9 kcal/mol in data set [11]; “Non-Toxic” in data set [12]; “Non-Toxic” in data set [13]; “Non-Toxic” in data set [15]. For the same molecule, the Activity in data set [16] was -10.9 kcal/mol. The inhibition at 24 h, 10 µM in data set [2] was 4.3%.
Turning to `CC(C)c1nc(N(C)S(C)(=O)=O)nc(-c2ccc(F)cc2)c1COC/C=C1\OC(=O)c2cc(Cl)ccc21`, the figures for the inhibition at 10 µM in data set [1], in data set [3] and in data set [4] were 21.3%, 24.7% and 27%, respectively. Besides, the inhibition at 24 h, 10 µM in [2] worked out at 2.9%.
As for `COc1cccc2c1C(=O)c1c(O)c3c(c(O)c1C2=O)C[C@@](O)(C(=O)CO)C[C@@H]3O[C@H]1C[C@H](N)[C@H](O)[C@H](C)O1` [DOXORUBICIN], the inhibition at 10 µM stood at 57% in data set [1], 61% in data set [3] and 81.3% in [4]. The figures for the Activity in [11] and in data set [16] were -8.6 kcal/mol and -8.8 kcal/mol, respectively.
What is called half-life is the time in which the quantity being followed falls by half. Consider `COc1cc2cc(COCc3c(-c4ccc(F)cc4)nc(N(C)S(C)(=O)=O)nc3C(C)C)oc(=O)c2cc1OC`, for which the results for the inhibition at 10 µM in data set [1], in data set [3] and in data set [4] were 48.7%, 65.6% and 68.4%, respectively. Moreover, the concentration for half-maximal inhibition (IC50) in [5] was 4.3 µM; in data set [17], 0.00451 µM; in [18], 0.00076 µM; in [14] it was more than 10 µM. The inhibition entry in data set [6], in data set [8] and in data set [10] was “Active” each time. The Activity result in data set [7] was “Non-Toxic”; in data set [9], “Non-Toxic”; in data set [11] it was -10.6 kcal/mol; in [12], “Non-Toxic”; in [13] it was “Non-Toxic”; in data set [15], “Non-Toxic”. In data set [16], this molecule had an Activity of -11.3 kcal/mol. In data set [2], the inhibition at 24 h, 10 µM was found to be 4.9%. Also, the microsomal CLint in data set [19] worked out at 26.3 µL/min/mg. In addition, the remaining at 1 h in data set [20] was determined as 47.2%. The half-life in data set [21] was determined as 1.83 h.
As to `Cc1ccc2cc(COCc3c(-c4ccc(F)cc4)nc(N(C)S(C)(=O)=O)nc3C(C)C)oc(=O)c2c1`, the inhibition at 10 µM in data set [1] turned out to be 24.1%; in [3], 26%; in data set [4] it was 28.4%. Besides, in data set [2], the inhibition at 24 h, 10 µM is 3.2%.
Regarding `Cc1ccc2c(c1)C(=O)O/C2=C\COCc1c(-c2ccc(F)cc2)nc(N(C)S(C)(=O)=O)nc1C(C)C`, the inhibition at 10 µM in [1] came out at 29.6%; in data set [3], 24.3%; in [4], 22.5%. Also, the inhibition at 24 h, 10 µM in data set [2] was found to be 1.6%.
The matching figures for `COc1ccc2c(c1)C(=O)O/C2=C\COCc1c(-c2ccc(F)cc2)nc(N(C)S(C)(=O)=O)nc1C(C)C`: 39.3%, 33.5%, 46.5% and 3.2%.
On to `CC(C)c1nc(N(C)S(C)(=O)=O)nc(-c2ccc(F)cc2)c1COC/C=C1\OC(=O)c2ccccc21`, for which the figures for the inhibition at 10 µM in data set [1], in data set [3] and in [4] were 19.3%, 20.2% and 52.3%, respectively. The inhibition at 24 h, 10 µM in [2] turned out to be 2.1%.
Turning to `CC(C)c1nc(N(C)S(C)(=O)=O)nc(-c2ccc(F)cc2)c1COC/C=C1\OC(=O)c2ccc(Cl)cc21`, the values for the inhibition at 10 µM in data set [1], in [3] and in data set [4] were 12.6%, 29.3% and 19.4%, respectively. In addition, in data set [2], the inhibition at 24 h, 10 µM came out at 3.3%.
The matching figures for `CC(C)c1nc(N(C)S(C)(=O)=O)nc(-c2ccc(F)cc2)c1COCc1cc2ccc(Br)cc2c(=O)o1`: 23.5%, 21.7%, 18.7% and 2.8%.
The like results for `COc1cccc2c1/C(=C/COCc1c(-c3ccc(F)cc3)nc(N(C)S(C)(=O)=O)nc1C(C)C)OC2=O` were, in that order, 26.5%, 25.4%, 24.3% and 4.1%.
As for `COc1ccc2cc(COCc3c(-c4ccc(F)cc4)nc(N(C)S(C)(=O)=O)nc3C(C)C)oc(=O)c2c1`, the inhibition at 10 µM in data set [1] came out at 39.1%; in [3] it was 43.2%; in data set [4], 38.3%. For the same molecule, in data set [2], the inhibition at 24 h, 10 µM worked out at 3.7%.
In the case of `Cc1cc(Cl)cc2c1/C(=C/COCc1c(-c3ccc(F)cc3)nc(N(C)S(C)(=O)=O)nc1C(C)C)OC2=O`, the inhibition at 10 µM stood at 14.1% in [1], 16% in [3] and 18.4% in [4]. Also, the inhibition at 24 h, 10 µM in data set [2] worked out at 2.2%.
On to `CC(C)c1nc(N(C)S(C)(=O)=O)nc(-c2ccc(F)cc2)c1COC/C=C1\OC(=O)c2ccc(F)cc21`, for which the inhibition at 10 µM in [1] came out at 27.5%; in data set [3], 19.8%; in data set [4], 15.1%. For the same molecule, the inhibition at 24 h, 10 µM in data set [2] stood at 1.7%.
The matching figures for `COc1ccc2c(=O)oc(COCc3c(-c4ccc(F)cc4)nc(N(C)S(C)(=O)=O)nc3C(C)C)cc2c1`: 39.7%, 41.8%, 40.1% and 3.4%.
The like results for `CC(C)c1nc(N(C)S(C)(=O)=O)nc(-c2ccc(F)cc2)c1COC/C=C1\OC(=O)c2cc(Br)ccc21` were, in that order, 20.4%, 13.6%, 21.8% and 1.9%.
The like results for `COc1ccc2c(c1)/C(=C/COCc1c(-c3ccc(F)cc3)nc(N(C)S(C)(=O)=O)nc1C(C)C)OC2=O` were, in that order, 38.6%, 35.1%, 38.3% and 3.8%.
For the molecule `Cc1ccc2c(c1C)/C(=C/COCc1c(-c3ccc(F)cc3)nc(N(C)S(C)(=O)=O)nc1C(C)C)OC2=O`, the inhibition at 10 µM came out at 21.6% in [1], 18.9% in [3] and 19.9% in data set [4]. Moreover, the inhibition at 24 h, 10 µM in [2] is 1.9%.
The matching figures for `CC(C)c1nc(N(C)S(C)(=O)=O)nc(-c2ccc(F)cc2)c1COC/C=C1\OC(=O)c2cccc(Cl)c21`: 22.1%, 25.5%, 26.8% and 3.7%.
On to `CC(C)c1nc(N(C)S(C)(=O)=O)nc(-c2ccc(F)cc2)c1COC/C=C1\OC(=O)c2cc(F)ccc21`, for which the inhibition at 10 µM in [1] turned out to be 26.7%; in data set [3] it was 18.3%; in data set [4] it was 18.9%. The inhibition at 24 h, 10 µM in data set [2] came out at 3.1%.

The values are drawn from ChEMBL document CHEMBL4706498, “Rosuvastatin based novel 3-substituted isocoumarins / 3-alkylidenephthalides: Ultrasound assisted synthesis and identification of new anticancer agents” (Eur J Med Chem, 2020).
